Measurements as given in patent US20220226298A1, “GPR40 AGONISTS” (Kallyope, Inc., priority 2019, published 2022).

tested on: not listed separately; assay: In vivo plasma levels in mice; details: mouse, oral, 30 mg/kg; male C57BL/6J mice, dose 30 mpk, plasma concentration of test article (parent) 30 min post dose; read-out: 30 min Exposure: Parent
Procedure: Male C57BL/6J mice 10-12 weeks old were acclimated to dosing (e.g., oral gavage) 2-3 times prior to the study. On the day of the study, food was removed for 5-6 hours, then the mice were dosed with test article or vehicle (e.g., by oral gavage at a volume of 10 mL/kg). Animals were euthanized with carbon dioxide typically 30 min post dose. Blood was collected via cardiac puncture for measurement of plasma concentrations of test article (parent) or metabolite resulting from ester cleavage.

concentration at 30 min	Compound
< 5 nM	COc1cc(-c2ccc(C(=O)Oc3cccc([C@H](C4CC4)[C@@](C)(F)C(=O)O)c3)cc2CN(C(C)C)C(C)C)c(F)cn1 [Compound 36, (2R,3S)-3-cyclopropyl-3-(3-((3-((diisopropylamino)methyl)-4-(5-fluoro-2-methoxypyridin-4-yl)benzoyl)oxy)phenyl)-2-fluoro-2-methylpropanoic acid]
< 2 nM	COc1cc(-c2ccc(C(=O)Oc3cccc([C@@H](CC(=O)O)C4CC4)c3)cc2CN(C(C)C)C(C)C)c(F)cn1 [Compound 15, (S)-3-cyclopropyl-3-(3-((3-((diisopropylamino)methyl)-4-(5-fluoro-2-methoxypyridin-4-yl)benzoyl)oxy)phenyl)propanoic acid]
< 2 nM	COc1cc(-c2ccc(C(=O)Oc3cccc([C@H](C4CC4)[C@H](C)C(=O)O)c3)cc2CN(C(C)C)C(C)C)c(F)cn1 [Compound 26, (2S,3R)-3-cyclopropyl-3-(3-((3-((diisopropylamino)methyl)-4-(5-fluoro-2-methoxypyridin-4-yl)benzoyl)oxy)phenyl)-2-methylpropanoic acid]

biological target: T1, human GPR40 (Homo sapiens, UniProt O14842); assay: Inositol phosphate accumulation assay (IP1 HTRF) in CHO-K1 cells expressing human GPR40; assay type: cell-based; details: 90 min stimulation
T1 construct: host or cells: CHO-K1
T1 sequence (O14842 whole entry): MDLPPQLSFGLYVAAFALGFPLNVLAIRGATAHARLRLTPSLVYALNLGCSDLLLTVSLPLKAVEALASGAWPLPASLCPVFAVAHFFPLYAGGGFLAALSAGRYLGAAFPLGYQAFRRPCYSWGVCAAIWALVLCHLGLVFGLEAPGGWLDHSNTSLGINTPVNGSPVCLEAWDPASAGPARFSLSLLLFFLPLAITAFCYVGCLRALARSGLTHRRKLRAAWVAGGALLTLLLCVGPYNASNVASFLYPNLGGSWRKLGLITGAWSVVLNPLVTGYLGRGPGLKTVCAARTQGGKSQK
Procedure: CHO-KI cells expressing human GPR40 were purchased from DiscoverX (95-1005C2). HEK293 cells expressing mouse FFAR1 were prepared using a mouse FFAR1 carrying plasmid purchased from OriGene Technologies (MR222997). The cells were transfected using Lipofectamine 2000 using manufacturer instructions and stable cell line was established from a single cell using geneticine selection. Assay ready frozen (ARF) cells were prepared and used throughout the study.
The assay was performed in a 384-well plate format using IP1 assay kit from Cis-Bio. ARF cells expressing FFAR1 (mouse and human) were thawed, washed and then plated in the appropriate medium (F12 based medium for CHO hFFAR1 and DMEM based medium for HEK293 mFFAR1—both were supplemented with 10% FBS and penicillin/streptomycin). 20 μL of 3.5×10^5 cells/mL were plated on a Poly D-Lysine coated 384-well white plate. The cells were then incubated for 16 hr at 37° C./5% CO2. After 16 hr the medium was removed and 15 μL of stimulation buffer containing the test compounds was added to the cells. The plates were then incubated for 90 min at 37° C./5% CO2. 5 μL of detection buffer (prepared as described in the IP-one kit) was added to each well and the plates were incubated at RT for 1 hr.
[…] was measured using ClarioSTAR plate reader, calculating the ratio between emissions at 665 nm and 620 nm (HTRF ratio). HTRF ratio for positive (Max) and negative (Min) controls were used to normalize HTRF data and generate values for % activity. EC50 and Max activity values were determined using a standard 4-parameter fit.

Compound	EC50
COc1cc(-c2ccc(C(=O)Oc3cccc([C@H](C4CC4)[C@@](C)(F)C(=O)O)c3)cc2CN(C(C)C)C(C)C)c(F)cn1 [Compound 36, (2R,3S)-3-cyclopropyl-3-(3-((3-((diisopropylamino)methyl)-4-(5-fluoro-2-methoxypyridin-4-yl)benzoyl)oxy)phenyl)-2-fluoro-2-methylpropanoic acid]	≤ 0.01 µM
COc1cc(-c2ccc(C(=O)Oc3cccc([C@@H](CC(=O)O)C4CC4)c3)cc2CN(C(C)C)C(C)C)c(F)cn1 [Compound 15, (S)-3-cyclopropyl-3-(3-((3-((diisopropylamino)methyl)-4-(5-fluoro-2-methoxypyridin-4-yl)benzoyl)oxy)phenyl)propanoic acid]	≤ 0.01 µM
COc1ccc(C(=O)N(CC(C)(C)C)c2cccc(C)n2)c(-c2ccc(C(=O)Oc3cccc([C@H](C4CC4)[C@H](C)C(=O)O)c3)c(C)c2)c1 [Compound 31, (2S,3R)-3-cyclopropyl-3-(3-((5′-methoxy-3-methyl-2′-((6-methylpyridin-2-yl)(neopentyl)carbamoyl)-[1,1′-biphenyl]-4-carbonyl)oxy)phenyl)-2-methylpropanoic acid]	≤ 0.01 µM
COc1ccc(F)c(-c2ccc(OC(=O)c3cccc([C@@H](CC(=O)O)C4CC4)c3)cc2)c1 [Compound 41]	0.1 to 0.5 µM
Cc1cc(-c2cc(O)ncc2F)c(CN(C(C)C)C(C)C)cc1C(=O)Oc1cccc([C@H](C2CC2)[C@@](C)(F)C(=O)O)c1 [Compound 64, (2R,3S)-3-cyclopropyl-3-(3-((5-((diisopropylamino)methyl)-4-(5-fluoro-2-hydroxypyridin-4-yl)-2-methylbenzoyl)oxy)phenyl)-2-fluoro-2-methylpropanoic acid]	> 0.5 µM
CC(c1cc(C(F)(F)F)ccc1C(F)(F)F)N1CC(OC(=O)c2cccc([C@@H](CC(=O)O)C3CC3)c2)C1 (some centres unmarked) [Compound 47]	> 0.5 µM
COc1cc(-c2ccc(OC(=O)c3cccc([C@H](C4CC4)[C@H](C)C(=O)O)c3)c(CN(C(C)C)C(C)C)c2)c(F)cn1 [Compound 55]	≤ 0.01 µM
O=C(O)C[C@H](c1cccc(C(=O)O)c1)C1CC1 [Compound 42]	> 0.5 µM
COc1cc(-c2cc(F)c(C(=O)Oc3cccc([C@@H](CC(=O)O)C4CC4)c3)cc2CN(C(C)C)C(C)C)ccn1 [Compound 16, (S)-3-cyclopropyl-3-(3-((5-((diisopropylamino)methyl)-2-fluoro-4-(2-methoxypyridin-4-yl)benzoyl)oxy)phenyl)propanoic acid]	≤ 0.01 µM
COc1cc(-c2ccc(C(=O)Oc3cccc([C@H](C4CC4)[C@H](C)C(=O)O)c3)c(C)c2)c(C(=O)N(CCO)CCO)cn1 [Compound 52]	> 0.5 µM
CCN(Cc1cc(OC(=O)c2cccc([C@H](C3CC3)[C@H](C)C(=O)O)c2)ccc1-c1cc(OC)ncc1F)C(C)C [Compound 57]	≤ 0.01 µM

The next lines start with the values.

EC50	Compound
≤ 0.01 µM	COc1cc(-c2ccc(C(=O)Oc3cccc([C@H](C4CC4)[C@H](C)C(=O)O)c3)cc2CN(C(C)C)C(C)C)c(F)cn1 [Compound 26, (2S,3R)-3-cyclopropyl-3-(3-((3-((diisopropylamino)methyl)-4-(5-fluoro-2-methoxypyridin-4-yl)benzoyl)oxy)phenyl)-2-methylpropanoic acid]
0.1 to 0.5 µM	COc1ccc(F)c(-c2ccc(OC(=O)c3cccc([C@@H](CC(=O)O)C4CC4)c3)c(C)c2)c1 [Compound 45, (S)-3-cyclopropyl-3-(3-(((2′-fluoro-5′-methoxy-3-methyl-[1,1′-biphenyl]-4-yl)oxy)carbonyl)phenyl)propanoic acid]
0.01 to 0.1 µM	COc1cc(-c2ccc(C(=O)Oc3cccc([C@@H](CC(=O)O)C4CC4)c3)cc2)c(F)cn1 [Compound 3]
≤ 0.01 µM	COc1cc(-c2cc(C)c(OC(=O)c3cccc([C@H](C4CC4)[C@H](C)C(=O)O)c3)cc2CN(C(C)C)C(C)C)c(F)cn1 [Compound 61]
≤ 0.01 µM	COc1ccc(F)c([C@H]2CC[C@H](C(=O)Oc3cccc([C@H](C4CC4)[C@H](C)C(=O)O)c3)CC2)c1 [Compound 40, (2S,3R)-3-cyclopropyl-3-(3-(((1r,4R)-4-(2-fluoro-5-methoxyphenyl)cyclohexanecarbonyl)oxy)phenyl)-2-methylpropanoic acid]
> 0.5 µM	COc1cc(-c2ccc(C(=O)Oc3cccc([C@H](C4CC4)[C@H](C)C(=O)O)c3)c(C)c2)c(C(=O)NCCO)cn1 [Compound 51]
